Results published in patent US11457627B2, “Plant activator” (IBIDEN CO., LTD., priority 2017, dated 2022).

Columns and labels:
[1] = system: resistance genes, PR1, PR2 and PDF1.2; assay: Resistance-inducing effect (expression of resistance genes overall); format: in vivo, Arabidopsis thaliana; conditions: used instead of the oxo fatty acid
Method: As Example 1, 0.15% potassium bicarbonate aqueous solution containing 0.012% of 13-oxo-9,11-octadecadienoic acid was prepared. (9Z,11E)-13-oxo-9,11-octadecadienoic acid (13-oxoODA, Cayman Chemical Company, INC.) was used as a 13-oxo-9,11-octadecadienoic acid. As Comparative Examples, 0.15% potassium bicarbonate aqueous solution containing 0.012% of a fatty acid analog, which is selected from 13-HPODE ((9Z,11E)-13-hydroperoxy-9,11-octadecadienoic acid, Cayman Chemical Company, INC.), 9-HPODE ((10Z,12E)-9-hydroperoxy-10,12-octadecadienoic acid, Cayman Chemical Company, INC.), 9-HPOTE ((10E,12Z,15Z)-9-hydroperoxy-10,12,15-octadecatrienoic acid, Cayman Chemical Company, INC.), 9-HOTE ((10E,12Z,15Z)-9-hydroxy-10,12,15-octadecatrienoic acid, Cayman Chemical Company, INC.), 13-HPOTE ((9Z, 11E, 15Z)-13-hydroperoxy-9,11,15-octadecatrienoic acid, Cayman Chemical Company, INC.), 13-HOTE ((9Z, 11E, 15Z)-13-hydroxy-9,11,15-octadecatrienoic acid, Cayman Chemical Company, INC.) and 12-OPDA (12-oxo-phytodienoic acid, Cayman Chemical Company, INC.), and 0.15% potassium bicarbonate aqueous solution containing 0.012% of an α-ketol fatty acid were prepared. An aqueous solution of α-ketol fatty acid was prepared according to the preparation method described below.
As Example 2, 0.15% dipotassium hydrogenphosphate aqueous solution containing 0.012% of 13-oxo-9,11-octadecadienoic acid was prepared. (9Z,11E)-13-oxo-9,11-octadecadienoic acid (13-oxoODA, Cayman Chemical Company, INC.) was used as a 13-oxo-9,11-octadecadienoic acid. […]
(§1) Each of the aqueous solutions obtained from Examples 1 and 2 was applied using the watering to treat only the roots (underground part) of Arabidopsis thaliana plants grown in the soil. The total RNA was isolated 24 hours after treatment from each Arabidopsis thaliana plant treated with each of the aqueous solutions and from the untreated Arabidopsis thaliana plant as a control, and the cDNA was synthesized from the isolated total RNA, and then the expression levels of resistance genes, PR1, PR2 and PDF1.2 were analyzed by real-time PCR. […]

PDF1.2 gene = assay: Evaluation of the resistance gene expression (real-time PCR), PDF1.2; format: in vivo, Arabidopsis thaliana; conditions: 0.012% in 0.15% potassium bicarbonate (FIG. 1) or 0.15% dipotassium hydrogenphosphate (FIG. 2) aqueous solution, watering of roots, RNA 24 hours after treatment
Method: (§2) As Example 1, 0.15% potassium bicarbonate aqueous solution containing 0.012% of 13-oxo-9,11-octadecadienoic acid was prepared. (9Z,11E)-13-oxo-9,11-octadecadienoic acid (13-oxoODA, Cayman Chemical Company, INC.) was used as a 13-oxo-9,11-octadecadienoic acid. […]
as §1

PR1 gene = assay: Evaluation of the resistance gene expression (real-time PCR), PR1; format: in vivo, Arabidopsis thaliana; conditions: 0.012% in 0.15% potassium bicarbonate (FIG. 1) or 0.15% dipotassium hydrogenphosphate (FIG. 2) aqueous solution, watering of roots, RNA 24 hours after treatment
Method: as §2, §1

[2] = target: T1, PPARα (peroxisome proliferator-activated receptor α) (Homo sapiens, UniProt Q07869); conditions: known from prior art; cited from earlier work
T1 sequence (Q07869 1-468): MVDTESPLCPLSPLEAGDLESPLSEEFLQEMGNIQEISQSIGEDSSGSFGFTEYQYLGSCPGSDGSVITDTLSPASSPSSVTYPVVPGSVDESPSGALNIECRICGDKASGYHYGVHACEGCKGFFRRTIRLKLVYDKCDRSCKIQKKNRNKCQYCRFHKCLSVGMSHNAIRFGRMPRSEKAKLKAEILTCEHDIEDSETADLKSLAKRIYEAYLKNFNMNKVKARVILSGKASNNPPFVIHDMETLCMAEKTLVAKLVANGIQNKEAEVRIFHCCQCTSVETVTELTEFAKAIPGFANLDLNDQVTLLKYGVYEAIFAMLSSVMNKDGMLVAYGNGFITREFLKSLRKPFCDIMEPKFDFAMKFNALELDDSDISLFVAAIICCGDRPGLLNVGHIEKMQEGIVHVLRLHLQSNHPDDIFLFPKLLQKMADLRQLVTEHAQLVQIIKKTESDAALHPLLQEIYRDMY

PR2 gene = assay: Evaluation of the resistance gene expression (real-time PCR), PR2; format: in vivo, Arabidopsis thaliana; conditions: 0.012% in 0.15% potassium bicarbonate (FIG. 1) or 0.15% dipotassium hydrogenphosphate (FIG. 2) aqueous solution, watering of roots, RNA 24 hours after treatment
Method: as §2, §1

| Compound | resistance-inducing effect (effect on the expression of resistance-inducing traits) [1] | also measured |
| --- | --- | --- |
| hydroxy octadecatrienoic acid [HOTE] | is not obtained | – |
| CC/C=C\C[C@@H]1C(=O)C=C[C@@H]1CCCCCCCC(=O)O [12-OPDA, 12-oxo-phytodienoic acid] | – | expression level of resistance gene PDF1.2 (PDF1.2 gene): induced the expression |
| hydroperoxyoctadecadienoic acid [HPODE] | is not obtained | – |
| hydroperoxy octadecatrienoic acid [HPOTE] | is not obtained | – |
| CC/C=C\CC(/C=C/C=C\CCCCCCCC(=O)O)OO (centres unmarked) [13-HPOTE, (9Z, 11E, 15Z)-13-hydroperoxy-9,11,15-octadecatrienoic acid] | does not provide any resistance-inducing effect | – |
| CCCCCC(=O)/C=C/C=C\CCCCCCCC(=O)O [13-oxoODA, (9Z,11E)-13-oxo-9,11-octadecadienoic acid] | – | expression level of resistance gene PR1 (PR1 gene): significantly higher expressions; agonist activity to activate transcription factor PPARα [2]: strong agonist activity; expression level of resistance gene PR2 (PR2 gene): significantly higher expressions |
